Reference: paper PMC4544630, “Contribution of C-glucosidic ellagitannins to Lythrum salicaria L. influence on pro-inflammatory functions of human neutrophils” (Journal of Natural Medicines, 2014)

Assays:
ROS [1] = test: ROS release from f-MLP-stimulated neutrophils, luminol chemiluminescence; format: cell-based, human; details: % of stimulated control
Text: (§1) Peripheral venous blood was taken from healthy human donors (20–35 years old) in the Warsaw Blood Donation Centre. […] The study conformed to the principles of the Declaration of Helsinki. Neutrophils were isolated using a standard method of dextran sedimentation prior to hypotonic lysis of erythrocytes and to centrifugation in a Ficoll Hypaque gradient. The purity of neutrophil preparations was >97 %, and viability measured by trypan blue exclusion was >98 %. Neutrophils were then resuspended in appropriate medium to perform the selected assay.
(§2) Generation of oxidants by f-MLP or PMA-stimulated neutrophils was measured using luminol- or lucigenin-dependent chemiluminescence tests. 70 μL of cell suspension (2 × 10^5/mL) in HBSS was incubated with 50 μL of compound or extract solution (final concentrations of 1, 5 and 20 μM or μg/mL) together with 50 μL of luminol (100 μM) or lucigenin (200 μM) solution. ROS production was initiated by the addition of 30 μL of f-MLP (0.1 μg/mL) or PMA (1 μg/mL). Changes in chemiluminescence at 37 °C were measured immediately for 45 min at intervals of 2 min in a microplate reader (Biotek). Ascorbic acid was used as a positive control.

elastase = test: Elastase release from cytochalasin A/f-MLP-stimulated neutrophils (SAAVNA substrate); format: cell-based, human; details: for Elastase release Mean(%): % of stimulated control; for activity on elastase release: tested concentrations (1, 5, 20 μM)
Text: as §1
Neutrophil elastase release was determined using SAAVNA as a substrate, and […] was measured spectrophotometrically. 100 μL of cell suspension (5 × 10^5/mL) in HBSS was preincubated with 50 μL of compound or extract solution (final concentrations of 1, 5 and 20 μM or μg/mL) for 15 min at 37 °C and then stimulated with 50 μL of cytochalasin A (5 μg/mL) and f-MLP (0.1 μg/mL) for 15 min. The neutrophils were centrifuged (2000 rpm; 10 min; 4 °C). After the addition of 50 μL of SAAVNA solution (1.6 mg/mL) to 100 μL of supernatant, the extent of […] was measured spectrophotometrically for 1 h at intervals of 20 min, at 412 nm using a microplate reader (BioTek). According to Kanashiro et al., quercetin was used as a positive control.

IL-8 = IL-8 production by LPS-stimulated neutrophils (ELISA); format: cell-based, human; details: LPS 100 ng/mL, 24 h, % of stimulated control
Text: as §1
(§3) Neutrophils (2 × 10^5/mL) were cultured in 24-well plates in RPMI 1640 medium with 10 % FBS, 10 mM HEPES, and 2 mM L-glutamine in the absence or presence of LPS (100 ng/mL) for 24 h at 37 °C with 5 % CO2 in the absence or presence of extract at concentrations of 1, 5 and 20 μg/mL, and compounds at concentrations of 1, 5 and 20 μM were added to 1 mL of cell suspension 1 h before the stimuli. After 24 h, the neutrophils were harvested and centrifuged (2000 RPM; 10 min; 4 °C). The amount of IL-8 or MMP-9 released into cell supernatants was measured by enzyme-linked immunosorbent assay (ELISA) following the manufacturer’s instructions (R&D Systems, Minneapolis, MN, USA). PBS was used as a non-stimulated control. Curcumin was used as a positive control, according to Aggarwal and Harikumar and Antoine et al..

MPO = MPO release from cytochalasin A/f-MLP-stimulated neutrophils (TMB substrate); format: cell-based, human; details: for MPO release Mean(%): cytochalasin A/f-MLP, % of stimulated control; for activity on MPO release: all tested concentrations (1, 5, 20 μM)
Text: Peripheral venous blood was taken from healthy human donors (20-35 years old) in the Warsaw Blood Donation Centre. […] The study conformed to the principles of the Declaration of Helsinki. Neutrophils were isolated using a standard method of dextran sedimentation prior to hypotonic lysis of erythrocytes and to centrifugation in a Ficoll Hypaque gradient. The purity of neutrophil preparations was >97 %, and viability measured by trypan blue exclusion was >98 %. Neutrophils were then resuspended in appropriate medium to perform the selected assay. Neutrophil MPO release was determined using TMB as a substrate. […] After centrifugation (2000 rpm; 10 min; 4 °C), 100 μL of supernatant was incubated with 50 μL of the TMB liquid substrate system. The reaction was terminated after 20 min by the addition of 2 M hydrochloric acid. The absorbance was measured at […] using a microplate reader (BioTek). Gallic acid was used as a positive control, according to Kroes et al..

ROS [2] = test: ROS release from PMA-stimulated neutrophils, lucigenin chemiluminescence; format: cell-based, human; details: PMA + lucygenin, % of stimulated control
Text: as §1, §2

[3] = target: T1, bovine testis hyaluronidase (Bos taurus, UniProt Q2YDK3); test: Hyaluronidase activity, USP turbidimetric method modified; format: biochemical; details: for Hyaluronidase activity Mean(%): % of 100% active enzyme control
T1 construct: purchased Sigma–Aldrich GmbH (Steinheim, Germany); host or cells: bovine testis
T1 sequence (Q2YDK3 36-553): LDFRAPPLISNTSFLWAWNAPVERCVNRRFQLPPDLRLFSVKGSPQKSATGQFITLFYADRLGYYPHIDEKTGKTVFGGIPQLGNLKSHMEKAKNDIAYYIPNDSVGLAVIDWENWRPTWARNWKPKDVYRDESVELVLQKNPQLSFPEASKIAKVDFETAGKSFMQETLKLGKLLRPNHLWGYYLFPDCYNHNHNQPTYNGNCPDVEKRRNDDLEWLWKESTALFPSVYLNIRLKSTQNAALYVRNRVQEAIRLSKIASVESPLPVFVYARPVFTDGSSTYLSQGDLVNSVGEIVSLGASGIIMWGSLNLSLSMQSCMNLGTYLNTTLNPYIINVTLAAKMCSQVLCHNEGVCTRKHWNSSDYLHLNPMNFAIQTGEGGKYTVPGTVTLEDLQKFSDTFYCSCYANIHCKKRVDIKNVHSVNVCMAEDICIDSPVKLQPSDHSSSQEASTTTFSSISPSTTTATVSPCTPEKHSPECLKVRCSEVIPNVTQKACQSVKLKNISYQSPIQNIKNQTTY
Text: The […] flowering herb was collected from its natural habitat in Umer in the Świętokrzyskie region (Poland) in July 2011. Its identity was confirmed anatomically and morphologically based on its pharmacopoeial monograph in the Department of Pharmacognosy and Molecular Basis of Phytotherapy, Medical University of Warsaw, where the voucher specimen UMER2011 is deposited. […] […]), castalagin ([…] (SB) and […]. 1, 2) from […] performed according to Piwowarski and Kiss. […] Isolated ellagitannins were of >95 % purity (determined by the HPLC-DAD-CAD method). […] Gallic acid (>96 % purity) was purchased from ChromaDex (Santa Ana, USA). Propidium iodide was purchased from BD Biosciences (San Diego, CA, USA). All substances used were of >95 % purity. Phosphate-buffered saline (PBS) was purchased from Gibco (Carlsbad, CA, USA). The influence of extract and ellagitannins on hyaluronidase activity was measured using the USP turbidimetric method modified by Piwowarski et al. […] Heparin was used as a positive control.

[4] = tested on: ethanol-induced gastric lesions; design: method as in PMID 12590500; details: mouse; orally 50 mg/kg b.w.; cited from earlier work
MMP-9 = MMP-9 production by LPS-stimulated neutrophils (ELISA); format: cell-based, human; details: LPS 100 ng/mL, 24 h, % of stimulated control
Text: as §1, §3

Structure (SMILES) | ROS release Mean(%) (ROS [1]; 1 μM) | ROS release Mean(%) (ROS [1]; 5 μM) | ROS release Mean(%) (ROS [1]; 20 μM) | Elastase release Mean(%) (elastase; 1 μM) | Elastase release Mean(%) (elastase; 5 μM) | Elastase release Mean(%) (elastase; 20 μM) | IL-8 production Mean (%) (IL-8; 1 μM) | IL-8 production Mean (%) (IL-8; 5 μM) | IL-8 production Mean (%) (IL-8; 20 μM) | MPO release Mean(%) (MPO; 1 μM) | MPO release Mean(%) (MPO; 5 μM) | MPO release Mean(%) (MPO; 20 μM) | ROS release Mean(%) (ROS [2]; 1 μM) | ROS release Mean(%) (ROS [2]; 5 μM) | ROS release Mean(%) (ROS [2]; 20 μM) | IC50 [3] | Hyaluronidase activity Mean(%) ([3]; 1 μM) | Hyaluronidase activity Mean(%) ([3]; 2 μM) | Hyaluronidase activity Mean(%) ([3]; 5 μM) | Hyaluronidase activity Mean(%) ([3]; 20 μM) | also measured
O=C1OC[C@H]2OC(=O)c3cc(O)c(O)c(O)c3-c3c(O)c(O)c(O)c4c3C(=O)O[C@H]([C@H]3OC(=O)c5c-4c(O)c(O)c(O)c5[C@H]3O)[C@@H]2OC(=O)c2cc(O)c(O)c(O)c2-c2c1cc(O)c(O)c2O [C, castalagin] | 62,41% | 40,10% | 29,55% | 96,55% | 102,40% | 105,22% | 92,43% | 75,24% | 70,24% | 75,53% | 56,44% | 29,85% | 79,28% | 60,48% | 37,00% | 3.1 ± 0.2 µM | 87,07% | 73,08% | 19,92% | 3,13% | activity on elastase release (elastase): completely inactive; activity on MPO release (MPO): expressed inhibitory activity at all tested concentrations; reduction of ethanol-induced gastric lesions [4]: very potent in the reduction of ethanol-induced gastric lesions; MMP-9 production Mean (%) (MMP-9; 1 μM): 92,70%; MMP-9 production Mean (%) (MMP-9; 5 μM): 88,18%; MMP-9 production Mean (%) (MMP-9; 20 μM): 96,42%
O=C(OC1COC(=O)c2cc(O)c(O)c(O)c2-c2c(cc(O)c(O)c2O)C(=O)OC1C1OC(=O)c2cc(O)c(O)c(O)c2-c2c(O)c(O)c(O)c3c2C(=O)OC1C3O)c1cc(O)c(O)c(O)c1Oc1cc2c(c(O)c1O)-c1c(cc(O)c(O)c1O)C(=O)OCC1OC(=O)c3cc(O)c(O)c(O)c3-c3c(O)c(O)c(O)c4c3C(=O)OC(C1OC2=O)C1OC(=O)c2c-4c(O)c(O)c(O)c2C1O (centres unmarked) [SB, salicarinin B] | 61,64% | 28,73% | 16,39% | 82,54% | 65,03% | 38,16% | 107,98% | 78,12% | 59,17% | 67,99% | 49,60% | 2,93% | 64,77% | 36,09% | 13,06% | 1.6 ± 0.2 µM | 70,96% | 34,62% | -0,07% | 0,50% | MMP-9 production Mean (%) (MMP-9; 1 μM): 99,56%; MMP-9 production Mean (%) (MMP-9; 5 μM): 95,83%; MMP-9 production Mean (%) (MMP-9; 20 μM): 78,81%
O=C1OCC2OC(=O)c3cc(O)c(O)c(O)c3-c3c(O)c(O)c(O)c4c3C(=O)OC(C2OC(=O)c2cc(O)c(O)c(O)c2-c2c1cc(O)c(O)c2O)C1OC(=O)c2c-4c(O)c(O)c(O)c2C1O (centres unmarked) [V, vescalagin] | 63,47% | 46,61% | 30,13% | 102,25% | 104,61% | 102,89% | 98,64% | 80,63% | 71,68% | 81,67% | 65,70% | 41,17% | 66,84% | 50,90% | 28,93% | 3.1 ± 0.2 µM | 88,10% | 68,10% | 18,39% | 5,10% | activity on elastase release (elastase): completely inactive; activity on MPO release (MPO): expressed inhibitory activity at all tested concentrations; MMP-9 production Mean (%) (MMP-9; 1 μM): 85,96%; MMP-9 production Mean (%) (MMP-9; 5 μM): 99,57%; MMP-9 production Mean (%) (MMP-9; 20 μM): 89,91%
